In US20230111310A1, “CARBOXYLIC ACID DERIVATIVE-SUBSTITUTED IMINO ARYL COMPOUND, PREPARATION METHOD THEREFOR, HERBICIDAL COMPOSITION AND USE THEREOF” (Qingdao Kingagroot Chemical Compound Co., Ltd., priority 2020, published 2023):

Legend:
Assay in all cases: Weeding effect in post-emergence stage
Format in all cases: in vivo
Setaria viridis = conditions: for Weeding effect in post-emergence stage, Setaria viridis: level of fresh weight growth control rate; for Weeding effect in post-emergence stage, Setaria viridis (level): fresh weight control rate level
In short: (§1)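 Doses of 500, 250, 125, 60, 30, 15 and 7.5 g/ha, with methyl oleate synergist (1.5 liter/ha) and Tween 80 from acetone solution, applied by spray tower post-emergence (2–3 leaf stage). Weed control scored after 3 further greenhouse weeks, averaged over triplicates.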

Alopecurus japonicus = conditions: for Weeding effect in post-emergence stage, Alopecurus japonicus: level of fresh weight growth control rate; for Weeding effect in post-emergence stage, Alopecurus japonicus (level): fresh weight control rate level
In short: as §1

Digitaria sanguinalis = conditions: for Weeding effect in post-emergence stage, Digitaria sanguinalis: level of fresh weight growth control rate; for Weeding effect in post-emergence stage, Digitaria sanguinalis (level): fresh weight control rate level
In short: as §1

Abutilon theophrasti = conditions: for Weeding effect in post-emergence stage, Abutilon theophrasti: level of fresh weight growth control rate; for Weeding effect in post-emergence stage, Abutilon theophrasti (level): fresh weight control rate level
In short: as §1

Eleusine indica = conditions: for Weeding effect in post-emergence stage, Eleusine indica: level of fresh weight growth control rate; for Weeding effect in post-emergence stage, Eleusine indica (level): fresh weight control rate level
In short: as §1

Echinochloa crusgalli = conditions: for Weeding effect in post-emergence stage, Echinochloa crusgalli: level of fresh weight growth control rate; for Weeding effect in post-emergence stage, Echinochloa crusgalli (level): fresh weight control rate level
In short: as §1

## COC(=O)C(C)(C)OC(=O)[C@@H](C)O/N=C/c1cc(-n2c(=O)cc(C(F)(F)F)n(C)c2=O)c(F)cc1Cl [243(R)]
Setaria viridis; Dose 15 g/ha
  Weeding effect in post-emergence stage, Setaria viridis: 5 (Level 5: growth control rate is above 85%)
Alopecurus japonicus; Dose 15 g/ha
  Weeding effect in post-emergence stage, Alopecurus japonicus: 5 (Level 5: growth control rate is above 85%)
Digitaria sanguinalis; Dose 15 g/ha
  Weeding effect in post-emergence stage, Digitaria sanguinalis: 5 (Level 5: growth control rate is above 85%)
Abutilon theophrasti; Dose 15 g/ha
  Weeding effect in post-emergence stage, Abutilon theophrasti: 5 (Level 5: growth control rate is above 85%)
Eleusine indica; Dose 15 g/ha
  Weeding effect in post-emergence stage, Eleusine indica: 5 (Level 5: growth control rate is above 85%)
Echinochloa crusgalli; Dose 15 g/ha
  Weeding effect in post-emergence stage, Echinochloa crusgalli: 5 (Level 5: growth control rate is above 85%)

## CCn1c(C(F)(F)F)cc(=O)n(-c2cc(/C=N/O[C@H](C)C(=O)OC)c(Cl)cc2F)c1=O [426(R)]
Setaria viridis; Dose 250 g/ha
  Weeding effect in post-emergence stage, Setaria viridis (level): 5 (Level 5: growth control rate is above 85%)
Alopecurus japonicus; Dose 250 g/ha
  Weeding effect in post-emergence stage, Alopecurus japonicus (level): 5 (Level 5: growth control rate is above 85%)
Digitaria sanguinalis; Dose 250 g/ha
  Weeding effect in post-emergence stage, Digitaria sanguinalis (level): 5 (Level 5: growth control rate is above 85%)
Abutilon theophrasti; Dose 250 g/ha
  Weeding effect in post-emergence stage, Abutilon theophrasti (level): 5 (Level 5: growth control rate is above 85%)
Eleusine indica; Dose 250 g/ha
  Weeding effect in post-emergence stage, Eleusine indica (level): 5 (Level 5: growth control rate is above 85%)
Echinochloa crusgalli; Dose 250 g/ha
  Weeding effect in post-emergence stage, Echinochloa crusgalli (level): 5 (Level 5: growth control rate is above 85%)

## COC(=O)C(C)NN=Cc1cc(-n2c(=O)cc(C(F)(F)F)n(C)c2=O)c(F)cc1Cl (stereo not drawn) [Compound 919]
Setaria viridis; Dose 30 g/ha
  Weeding effect in post-emergence stage, Setaria viridis (level): 5 (Level 5: growth control rate is above 85%)
Alopecurus japonicus; Dose 30 g/ha
  Weeding effect in post-emergence stage, Alopecurus japonicus (level): 5 (Level 5: growth control rate is above 85%)
Digitaria sanguinalis; Dose 30 g/ha
  Weeding effect in post-emergence stage, Digitaria sanguinalis (level): 5 (Level 5: growth control rate is above 85%)
Abutilon theophrasti; Dose 30 g/ha
  Weeding effect in post-emergence stage, Abutilon theophrasti (level): 5 (Level 5: growth control rate is above 85%)
Eleusine indica; Dose 30 g/ha
  Weeding effect in post-emergence stage, Eleusine indica (level): 5 (Level 5: growth control rate is above 85%)
Echinochloa crusgalli; Dose 30 g/ha
  Weeding effect in post-emergence stage, Echinochloa crusgalli (level): 5 (Level 5: growth control rate is above 85%)

## CCCCOC(=O)[C@@H](C)O/N=C/c1cc(-n2c(=O)cc(C(F)(F)F)n(C)c2=O)c(F)cc1Cl [200(R)]
Setaria viridis; Dose 15 g/ha
  Weeding effect in post-emergence stage, Setaria viridis: 5 (Level 5: growth control rate is above 85%)
Alopecurus japonicus; Dose 15 g/ha
  Weeding effect in post-emergence stage, Alopecurus japonicus: 5 (Level 5: growth control rate is above 85%)
Digitaria sanguinalis; Dose 15 g/ha
  Weeding effect in post-emergence stage, Digitaria sanguinalis: 5 (Level 5: growth control rate is above 85%)
Abutilon theophrasti; Dose 15 g/ha
  Weeding effect in post-emergence stage, Abutilon theophrasti: 5 (Level 5: growth control rate is above 85%)
Eleusine indica; Dose 15 g/ha
  Weeding effect in post-emergence stage, Eleusine indica: 5 (Level 5: growth control rate is above 85%)
Echinochloa crusgalli; Dose 15 g/ha
  Weeding effect in post-emergence stage, Echinochloa crusgalli: 5 (Level 5: growth control rate is above 85%)

## CC(C)=NOC(=O)C(C)O/N=C/c1cc(-n2c(=O)cc(C(F)(F)F)n(C)c2=O)c(F)cc1Cl (stereo not drawn) [Compound 248]
Setaria viridis; Dose 15 g/ha
  Weeding effect in post-emergence stage, Setaria viridis: 5 (Level 5: growth control rate is above 85%)
Alopecurus japonicus; Dose 15 g/ha
  Weeding effect in post-emergence stage, Alopecurus japonicus: 5 (Level 5: growth control rate is above 85%)
Digitaria sanguinalis; Dose 15 g/ha
  Weeding effect in post-emergence stage, Digitaria sanguinalis: 5 (Level 5: growth control rate is above 85%)
Abutilon theophrasti; Dose 15 g/ha
  Weeding effect in post-emergence stage, Abutilon theophrasti: 5 (Level 5: growth control rate is above 85%)
Eleusine indica; Dose 15 g/ha
  Weeding effect in post-emergence stage, Eleusine indica: 5 (Level 5: growth control rate is above 85%)
Echinochloa crusgalli; Dose 15 g/ha
  Weeding effect in post-emergence stage, Echinochloa crusgalli: 5 (Level 5: growth control rate is above 85%)

## CCCSC(=O)[C@@H](C)O/N=C/c1cc(-n2c(=O)cc(C(F)(F)F)n(C)c2=O)c(F)cc1Cl [399(R)]
Setaria viridis; Dose 15 g/ha
  Weeding effect in post-emergence stage, Setaria viridis (level): 5 (Level 5: growth control rate is above 85%)
Alopecurus japonicus; Dose 15 g/ha
  Weeding effect in post-emergence stage, Alopecurus japonicus (level): 5 (Level 5: growth control rate is above 85%)
Digitaria sanguinalis; Dose 15 g/ha
  Weeding effect in post-emergence stage, Digitaria sanguinalis (level): 5 (Level 5: growth control rate is above 85%)
Abutilon theophrasti; Dose 15 g/ha
  Weeding effect in post-emergence stage, Abutilon theophrasti (level): 5 (Level 5: growth control rate is above 85%)
Eleusine indica; Dose 15 g/ha
  Weeding effect in post-emergence stage, Eleusine indica (level): 5 (Level 5: growth control rate is above 85%)
Echinochloa crusgalli; Dose 15 g/ha
  Weeding effect in post-emergence stage, Echinochloa crusgalli (level): 5 (Level 5: growth control rate is above 85%)

## CCN(CC)C(=O)[C@@H](C)O/N=C/c1cc(-n2c(=O)cc(C(F)(F)F)n(C)c2=O)c(F)cc1Cl [502(R)]
Setaria viridis; Dose 15 g/ha
  Weeding effect in post-emergence stage, Setaria viridis (level): 5 (Level 5: growth control rate is above 85%)
Alopecurus japonicus; Dose 15 g/ha
  Weeding effect in post-emergence stage, Alopecurus japonicus (level): 5 (Level 5: growth control rate is above 85%)
Digitaria sanguinalis; Dose 15 g/ha
  Weeding effect in post-emergence stage, Digitaria sanguinalis (level): 5 (Level 5: growth control rate is above 85%)
Abutilon theophrasti; Dose 15 g/ha
  Weeding effect in post-emergence stage, Abutilon theophrasti (level): 5 (Level 5: growth control rate is above 85%)
Eleusine indica; Dose 15 g/ha
  Weeding effect in post-emergence stage, Eleusine indica (level): 5 (Level 5: growth control rate is above 85%)
Echinochloa crusgalli; Dose 15 g/ha
  Weeding effect in post-emergence stage, Echinochloa crusgalli (level): 5 (Level 5: growth control rate is above 85%)

## CC(O/N=C/c1cc(-n2c(=O)n(C)c(=S)n(C)c2=O)c(F)cc1Cl)C(=O)OCC(F)(F)F (stereo not drawn) [Compound 439]
Setaria viridis; Dose 30 g/ha
  Weeding effect in post-emergence stage, Setaria viridis (level): 5 (Level 5: growth control rate is above 85%)
Alopecurus japonicus; Dose 30 g/ha
  Weeding effect in post-emergence stage, Alopecurus japonicus (level): 5 (Level 5: growth control rate is above 85%)
Digitaria sanguinalis; Dose 30 g/ha
  Weeding effect in post-emergence stage, Digitaria sanguinalis (level): 5 (Level 5: growth control rate is above 85%)
Abutilon theophrasti; Dose 30 g/ha
  Weeding effect in post-emergence stage, Abutilon theophrasti (level): 5 (Level 5: growth control rate is above 85%)
Eleusine indica; Dose 30 g/ha
  Weeding effect in post-emergence stage, Eleusine indica (level): 5 (Level 5: growth control rate is above 85%)
Echinochloa crusgalli; Dose 30 g/ha
  Weeding effect in post-emergence stage, Echinochloa crusgalli (level): 5 (Level 5: growth control rate is above 85%)

## C[C@@H](O/N=C/c1cc(-n2c(=O)n(C)c(=S)n(C)c2=O)c(F)cc1Cl)C(=O)OCc1ccccc1 [42(R)]
Setaria viridis; Dose 15 g/ha
  Weeding effect in post-emergence stage, Setaria viridis: 5 (Level 5: growth control rate is above 85%)
Alopecurus japonicus; Dose 15 g/ha
  Weeding effect in post-emergence stage, Alopecurus japonicus: 4 (Level 4: growth control rate is greater than or equal to 60% and less than 85%)
Digitaria sanguinalis; Dose 15 g/ha
  Weeding effect in post-emergence stage, Digitaria sanguinalis: 5 (Level 5: growth control rate is above 85%)
Abutilon theophrasti; Dose 15 g/ha
  Weeding effect in post-emergence stage, Abutilon theophrasti: 5 (Level 5: growth control rate is above 85%)
Eleusine indica; Dose 15 g/ha
  Weeding effect in post-emergence stage, Eleusine indica: 5 (Level 5: growth control rate is above 85%)
Echinochloa crusgalli; Dose 15 g/ha
  Weeding effect in post-emergence stage, Echinochloa crusgalli: 5 (Level 5: growth control rate is above 85%)

## COC(=O)[C@@H](C)N/N=C/c1cc(-n2c(=O)cc(C(F)(F)F)n(C)c2=O)c(F)cc1Cl [919(R)]
Setaria viridis; Dose 30 g/ha
  Weeding effect in post-emergence stage, Setaria viridis (level): 5 (Level 5: growth control rate is above 85%)
Alopecurus japonicus; Dose 30 g/ha
  Weeding effect in post-emergence stage, Alopecurus japonicus (level): 5 (Level 5: growth control rate is above 85%)
Digitaria sanguinalis; Dose 30 g/ha
  Weeding effect in post-emergence stage, Digitaria sanguinalis (level): 5 (Level 5: growth control rate is above 85%)
Abutilon theophrasti; Dose 30 g/ha
  Weeding effect in post-emergence stage, Abutilon theophrasti (level): 5 (Level 5: growth control rate is above 85%)
Eleusine indica; Dose 30 g/ha
  Weeding effect in post-emergence stage, Eleusine indica (level): 5 (Level 5: growth control rate is above 85%)
Echinochloa crusgalli; Dose 30 g/ha
  Weeding effect in post-emergence stage, Echinochloa crusgalli (level): 5 (Level 5: growth control rate is above 85%)

## COC(=O)[C@@H](C)O/N=C/c1cc(-n2c(=O)cc(C(F)(F)F)n(C)c2=S)c(F)cc1Cl [347(R)]
Setaria viridis; Dose 30 g/ha
  Weeding effect in post-emergence stage, Setaria viridis: 5 (Level 5: growth control rate is above 85%)
Alopecurus japonicus; Dose 30 g/ha
  Weeding effect in post-emergence stage, Alopecurus japonicus: 5 (Level 5: growth control rate is above 85%)
Digitaria sanguinalis; Dose 30 g/ha
  Weeding effect in post-emergence stage, Digitaria sanguinalis: 5 (Level 5: growth control rate is above 85%)
Abutilon theophrasti; Dose 30 g/ha
  Weeding effect in post-emergence stage, Abutilon theophrasti: 5 (Level 5: growth control rate is above 85%)
Eleusine indica; Dose 30 g/ha
  Weeding effect in post-emergence stage, Eleusine indica: 5 (Level 5: growth control rate is above 85%)
Echinochloa crusgalli; Dose 30 g/ha
  Weeding effect in post-emergence stage, Echinochloa crusgalli: 5 (Level 5: growth control rate is above 85%)

## COC(=O)C(C)OC(=O)[C@@H](C)O/N=C/c1cc(-n2c(=O)cc(C(F)(F)F)n(C)c2=O)c(F)cc1Cl (stereo partly drawn) [241(R)]
Setaria viridis; Dose 30 g/ha
  Weeding effect in post-emergence stage, Setaria viridis: 5 (Level 5: growth control rate is above 85%)
Alopecurus japonicus; Dose 30 g/ha
  Weeding effect in post-emergence stage, Alopecurus japonicus: 5 (Level 5: growth control rate is above 85%)
Digitaria sanguinalis; Dose 30 g/ha
  Weeding effect in post-emergence stage, Digitaria sanguinalis: 5 (Level 5: growth control rate is above 85%)
Abutilon theophrasti; Dose 30 g/ha
  Weeding effect in post-emergence stage, Abutilon theophrasti: 5 (Level 5: growth control rate is above 85%)
Eleusine indica; Dose 30 g/ha
  Weeding effect in post-emergence stage, Eleusine indica: 5 (Level 5: growth control rate is above 85%)
Echinochloa crusgalli; Dose 30 g/ha
  Weeding effect in post-emergence stage, Echinochloa crusgalli: 5 (Level 5: growth control rate is above 85%)

## COC(=O)[C@@H](C)O/N=C/c1cc(-n2c(=O)cc(C(F)(F)F)n(C)c2=S)c(F)cc1C(F)(F)F [395(R)]
Setaria viridis; Dose 60 g/ha
  Weeding effect in post-emergence stage, Setaria viridis (level): 5 (Level 5: growth control rate is above 85%)
Alopecurus japonicus; Dose 60 g/ha
  Weeding effect in post-emergence stage, Alopecurus japonicus (level): 5 (Level 5: growth control rate is above 85%)
Digitaria sanguinalis; Dose 60 g/ha
  Weeding effect in post-emergence stage, Digitaria sanguinalis (level): 5 (Level 5: growth control rate is above 85%)
Abutilon theophrasti; Dose 60 g/ha
  Weeding effect in post-emergence stage, Abutilon theophrasti (level): 5 (Level 5: growth control rate is above 85%)
Eleusine indica; Dose 60 g/ha
  Weeding effect in post-emergence stage, Eleusine indica (level): 5 (Level 5: growth control rate is above 85%)
Echinochloa crusgalli; Dose 60 g/ha
  Weeding effect in post-emergence stage, Echinochloa crusgalli (level): 5 (Level 5: growth control rate is above 85%)
